This note sets out measurements from patent US4820873A, “Pyrene derivatives” (priority 1984, dated 1989).

Structures can show the parent of a compound that is named as a salt.

The MIC is the lowest concentration found to suppress growth. By inhibition is commonly meant the percentage by which the read-out fell short of the control. What is called LD50 is the dose at which mortality reaches 50%.

One data set is described as follows: LD20 in the P388/0 test. In kind it is in vivo, CD2-F1 mice. Further details: LD20: dose in mg/kg body weight. The settings on record: intraperitoneal, days 1, 5, 9, doses are on a mg/kg basis; for MTD: mouse, in vivo, ip, read-out: highest nontoxic dose (LD20 column, values in parentheses; LD20 was not determined). Here is the method: CD2-F1 mice, of the same sex, weighing 20±3 g, are used for this test. Control and test animals are injected intraperitoneally with a suspension of ~10^6 viable P388/0 tumor cells on day 0. In each test, several dose levels which bracket the LD20 of the compound are evaluated; each dose level group contains 6 animals. The test compounds are prepared either in physiologic saline containing 0.05% Tween 80 or distilled water containing 5% dextrose and are administered intraperitoneally on days 1, 5, and 9 relative to tumor implant. Doses are on a mg/kg basis according to individual animals' body weights. The day of death for each animal is recorded, the median identified for each group and the ratios of median survival time for treated (T)/control (C) groups are calculated. The criterion for activity is T/C×100≥120%.

For data set [1], the system named is Mycoplasma smegmatis (S3264). The data set can be described thus: Antibacterial screening, Mycoplasma smegmatis, agar dilution assay. It is filed as cell-based. From the text: (§1) Antibacterial testing against Mycoplasma smegmatis (S3264) and Streptococcus pyogens (CN10) was done with slight modifications using standard agar dilution assays as outlined in Manual of Clinical Microbiology, Second Ed., E. H. Lennette, E. H. Spaulding and J. P. Truant Eds., American Society for Microbiology, Washington, DC, 1974.

In data set [2] the test system is Candida albicans (CN1863). Briefly: Antifungal screening, Candida albicans, broth and agar dilution assays. As to conditions: Medium: Wellcotest sensitivity test agar plus 7% lysed horse blood. It is filed as cell-based. From the text:
Antifungal testing against Candida albicans (CN1863) was done with slight modifications using a combination of broth and agar dilution assays as outlined in Laboratory Handbook of Medical Mycology, Chapter 6, pages 441-446, M. R. McGinnis, Academic Press, New York, NY, 1980.
Medium: Wellcotest* sensitivity test agar plus 7% lysed horse blood.
Background: Agar dilution tests growth on a series of plates holding different concentrations.

Data set [3] deals with Brugia pahangi microfilaria. Briefly: Screening against Brugia pahangi microfilaria (in vitro). It is filed as cell-based. As to conditions: for inhibition at 12.5 µg/mL: 12.5 mg/L. An excerpt: Anthelmintic testing against Brugia pahangi was done using methods outlined in D. A. Denham et al., Transactions of the Royal Society of Tropical Medicine and Hygiene 73, 673-676 (1979).

A further data set deals with Eimeria tenella. Briefly: Antiprotozoal screening, Eimeria tenella (in vitro). It is filed as cell-based. As to conditions: in vitro, read-out: Result (screen code, inhibition); for inhibition at 5 µg/mL: 5 mg/L. An excerpt:
Antiprotozoal testing against Eimeria tenella was done using methods outlined in V. S. Latter and D. Wilson, Parasitology 79, 169 (1979).

In another data set the test system is Trichomonas vaginalis. The data set can be described thus: Antiprotozoal testing, Trichomonas vaginalis (in vitro). It is filed as cell-based. The settings on record: Stenton or Modified Diamond's medium, read-out: Result (screen code, inhibition); for inhibition at 40 µg/mL: 40 mg/L. An excerpt: Antiprotozoal testing against Trichomonas vaginalis was done using methods outlined by R. M. Michaels in Advances in Chemotherapy, 3, 39-108 (1968).
(Stenton or Modified Diamond's medium)

The subject of data set [4] is Streptococcus pyogenes (CN10). The data set can be described thus: Antibacterial testing, Streptococcus pyogenes, agar dilution assay. It is filed as cell-based.
From the text: as §1

Data set [5] concerns Nippostrongylus brasiliensis (Immature - free living stages). The data set can be described thus: Anthelmintic screening, Nippostrongylus brasiliensis. It is filed as cell-based. From the text: Anthelmintic testing against Nippostrongylus brasiliensis was done using methods as outlined in D. C. Jenkins, R. Armitage, and T. S. Carrington, Zetschrift fur Parasitenkunde 63, 261-269 (1980).

Another data set in a line: LD50 Tests. The settings on record: in vivo; IP single dose - CD1 Male Mouse. From the text: |(IP single dose - CD1 Male Mouse)
The subject of the next data set is Herpes simplex 1/vero. The data set can be described thus: Herpes simplex 1/vero plaque inhibition screen. It is filed as cell-based. An excerpt:
Antiviral testing against Herpes simplex 1/vero was done using plaque inhibition methods as outlined in P. Collins and D. J. Bauer, Proc. N.Y. Acad. Sci. 284, 49 (1977) and by plaque reduction methods as outlined in P. Collins and D. J. Bauer, J. Antimicrobiol Chemotherapy 3, Supplement A, 73, (1977). The column headings labeled Score, Toxicity, and Zone of Inhibition refer to the plaque inhibition screen while the IC50 heading to the plaque reduction screen.

Setting [6] is: read-out: Result (screen code, inhibition).

For `COCC(C)(CO)NCc1ccc2ccc3cccc4ccc1c2c34` (stereo not drawn) [Example 22D, 3-methoxy-2-methyl-2-((1-pyrenylmethyl)amino)-1-propanol methanesulfonate.1/3H2 O], in “LD20 in the P388/0 test”, the LD20 is reported as 135.
As for `CC(=O)OCC(COC(C)=O)(COC(C)=O)NCc1ccc2ccc3cccc4ccc1c2c34` [Example 15, 2-Acetoxymethyl-1,3,-O-diacetyl-2-((1-pyrenylmethyl)amino)-1,3-propanediol], in the data set “LD20 in the P388/0 test”, the MTD came to 500 mg/kg. The MIC in data set [1] was no more than 10 µg/mL; in data set [2] it was greater than 50 µg/mL.
As for `CC(C)(CO)NCc1ccc2ccc3cccc4ccc1c2c34` [Example 2B, 2-Methyl-2-((1-pyrenylmethyl)amino)propanol], the LD20 in the data set “LD20 in the P388/0 test” worked out at 450.
Take `CC(CO)NCc1ccc2ccc3cccc4ccc1c2c34` (stereo not drawn) [Example 7, 2-((1-Pyrenylmethyl)amino)propanol hydrochloride]: the LD20 in “LD20 in the P388/0 test” came out at 600. In addition, the results for the MIC in [1] and in data set [2] were no more than 5 µg/mL and 50 µg/mL, respectively.
Molecule `CC(C)(CO)NCc1ccc2ccc3cccc4ccc1c2c34` [Example 2A, 2-methyl-2-((1-pyrenylmethyl)amino)propanol hydrochloride] came in with an LD20 in “LD20 in the P388/0 test” (hydrochloride) of 170. The MIC in data set [1] is no more than 5 µg/mL; in [2], 10 µg/mL; in data set [3] it was 3.1 µg/mL; in data set [4], 10 µg/mL; in [5], 10 µg/mL. The inhibition at 3.1 µg/mL in data set [3] (3.1 mg/L, read-out: Result (screen code, inhibition)) was in the range of 76 to 100%. The inhibition at 5 µg/mL with Eimeria tenella is 26 to 50%. Moreover, the inhibition at 40 µg/mL in the data set on Trichomonas vaginalis lay in the range of 51 to 75%.
Turning to `CCC(CO)NCc1ccc2ccc3cccc4ccc1c2c34` (stereo not drawn) [Example 6, 2-((1-Pyrenylmethyl)amino)butanol hydrochloride], the LD20 in the data set “LD20 in the P388/0 test” was 450. Moreover, the MIC in data set [1] stood at 10 µg/mL; in data set [2] it was 50 µg/mL. Further, the LD50 in the data set “LD50 Tests” was 350 mg/kg. Further, the Score with Herpes simplex 1/vero is listed as -2 (26-50% inhibition). In the data set with Trichomonas vaginalis, the inhibition at 40 µg/mL lay in the range of 76 to 100%.
Turning to `C[C@H](O)[C@@](C)(CO)NCc1ccc2ccc3cccc4ccc1c2c34` (relative stereo) [Example 20G, (+-)(2R*,3S*)-2-((1-Pyrenylmethyl)amino)-2-methyl-1,3-butanediol hydrochloride], the LD20 in the data set “LD20 in the P388/0 test” amounted to 125.
With `CCC(COC(C)=O)(COC(C)=O)NCc1ccc2ccc3cccc4ccc1c2c34` [Example 16, 2-Ethyl-2-((1-pyrenylmethyl)amino)-1,3-propanediol diacetate], the MTD in the data set “LD20 in the P388/0 test” stood at 675 mg/kg. Further, in the data set with Herpes simplex 1/vero, the Score is -4 (76-100% inhibition).
For `CC(C)(O)CNCc1ccc2ccc3cccc4ccc1c2c34` [Example 12, 2-(((1-Pyrenylmethyl)amino)methyl)-2-propanol hydrochloride], the MIC in [1] and in data set [2] was greater than 50 µg/mL each time. The inhibition at 12.5 µg/mL in [3] (setting [6]) is 26 to 50%. Also, in the data set with Eimeria tenella, the inhibition at 5 µg/mL was in the range of 76 to 100%.
In the data set “LD20 in the P388/0 test”, `OCCNCc1ccc2ccc3cccc4ccc1c2c34` [Example 13, 2-((1-Pyrenylmethyl)amino)ethanol hydrochloride] yielded an LD20 of 220. For the same molecule, the MIC in data set [1] turned out to be 5 µg/mL; in [2] it was 10 µg/mL; in data set [4], 5 µg/mL; in data set [5], 50 µg/mL. In “LD50 Tests”, this molecule had an LD50 of 160 mg/kg. Moreover, the inhibition at 5 µg/mL in the data set on Eimeria tenella lay within 26 to 50%.
Consider `OCC(CO)NCc1ccc2ccc3cccc4ccc1c2c34` [Example 11, 2-((1-Pyrenylmethyl)amino)-1,3-propanediol hydrochloride], for which, in “LD20 in the P388/0 test”, the LD20 is reported as 450. Further, the minimal inhibitory concentration (MIC) in data set [1] was 10 µg/mL; in [2], 50 µg/mL; in data set [4], 5 µg/mL; in data set [5], no less than 50 µg/mL. For the same molecule, in the data set “LD50 Tests”, the LD50 was determined as 250 mg/kg. The inhibition at 5 µg/mL in the data set with Eimeria tenella was in the range of 76 to 100%. The inhibition at 40 µg/mL in the data set with Trichomonas vaginalis was in the range of 76 to 100%.
For `CC(C)C(CO)NCc1ccc2ccc3cccc4ccc1c2c34` (stereo not drawn) [Example 4, 3-Methyl-2-((1-pyrenylmethyl)amino)butanol hydrochloride], the LD20 in the data set “LD20 in the P388/0 test” is 450. The inhibition at 12.5 µg/mL in data set [3] (setting [6]) is 26 to 50%. The molecule further showed an MIC in data set [5] of 10 µg/mL.
`CCOCC(CO)(CO)NCc1ccc2ccc3cccc4ccc1c2c34` [Example 21C, 2-Ethoxymethyl-2-((1-pyrenylmethyl)amino)-1,3-propanediol hydrochloride 1/3H2 O] showed an LD20 in “LD20 in the P388/0 test” of 225.
Regarding `CCC(O)CNCc1ccc2ccc3cccc4ccc1c2c34` (stereo not drawn) [Example 9, 1-((1-Pyrenylmethyl)amino)-2-butanol hydrochloride], the MIC came to 10 µg/mL in data set [1], 10 µg/mL in data set [2], 10 µg/mL in [4] and 50 µg/mL in data set [5]. Further, the LD50 in the data set “LD50 Tests” was found to be 350 mg/kg. In the data set with Trichomonas vaginalis, the inhibition at 40 µg/mL lay within 26 to 50%.
The molecule `CC(O)CNCc1ccc2ccc3cccc4ccc1c2c34` (stereo not drawn) [Example 8, 1-((1-pyrenylmethyl)amino)-2-propanol hydrochloride] returned an LD20 in “LD20 in the P388/0 test” of 600. Moreover, the figures for the MIC in data set [1] and in [2] were 10 µg/mL and 50 µg/mL, respectively.
Take `CC(O)CCNCc1ccc2ccc3cccc4ccc1c2c34` (stereo not drawn) [Example 14, 4-((1-Pyrenylmethyl)amino)-2-butanol hydrochloride]: the MIC is 10 µg/mL in [1], 50 µg/mL in data set [2], no more than 5 µg/mL in data set [4] and 50 µg/mL in data set [5]. For the same molecule, in the data set “LD50 Tests”, the LD50 was 130 mg/kg. Besides, the inhibition at 0.31 µg/mL with Eimeria tenella (0.31 mg/L) was in the range of 26 to 50%.
The molecule `CC(CO)(CO)NCc1cc2cccc3ccc4cccc1c4c32` [Example 19, 2-methyl-2-((4-pyrenylmethyl)amino)-1,3-propanediol hydrochloride.1/4H2 O] returned an LD20 in “LD20 in the P388/0 test” of 45. The MIC in [1] is 10 µg/mL; in [2], 30 µg/mL.
In turn, `O[C@@H]1CCC[C@H](O)[C@H]1NCc1ccc2ccc3cccc4ccc1c2c34` [Example 23B, (1α,2β,3α)-2-((1-Pyrenylmethyl)amino)-1,3-cyclohexanediolmethanesulfonate] displayed an LD20 in the data set “LD20 in the P388/0 test” of 180.
On to `CC(=O)OCC(C)(COC(C)=O)NCc1ccc2ccc3cccc4ccc1c2c34` [Example 18, 2-methyl-2-(1-pyrenylmethyl)amino)-1,3-propanediol diacetate], for which, in “LD20 in the P388/0 test”, the MTD was found to be 300 mg/kg. Moreover, the figures for the MIC in data set [1] and in data set [4] were no more than 10 µg/mL and 30 µg/mL, respectively. The Score in the data set on Herpes simplex 1/vero was -3 (51-75% inhibition). For the same molecule, in the data set with Herpes simplex 1/vero, the “Zone of Inhibition” value was determined as 30.
Consider `OCCCNCc1ccc2ccc3cccc4ccc1c2c34` [Example 3, 3-((1-pyrenylmethyl)amino)propanol hydrochloride], for which the LD20 in “LD20 in the P388/0 test” is 450. Besides, the MIC in [1] was less than 5 µg/mL; in data set [2], 30 µg/mL; in data set [3], 0.78 µg/mL; in [4] it was 10 µg/mL; in data set [5] it was 1 µg/mL. Also, the inhibition at 0.78 µg/mL in data set [3] (0.78 mg/L, read-out: Result (screen code, inhibition)) fell in the range of 76 to 100%. The inhibition at 6.25 µg/mL in the data set on Trichomonas vaginalis (6.25 mg/L) fell in the range of 76 to 100%.
